Measurements as given in patent US12617777B2, “GPR84 antagonists and uses thereof” (Liminal BioSciences Limited, priority 2021, dated 2026).

Target: T1, human GPR84 receptor (Homo sapiens, UniProt Q9NQS5)
T1 construct: host or cells: HEK293, transient transfection
Test: Gαi biosensor BRET assay in HEK293 cells (antagonism of ZQ-16)
Assay type: cell-based
Details: for inhibition at 12.5 µM: HEK293, single concentration 12.5 μM (designated G); for inhibition at 10 µM: HEK293, single concentration 10 μM (designated F); for inhibition at 2 µM: HEK293, single concentration 2 μM (designated A); for IC50: HEK293 cells, antagonism of 200 nmol/L ZQ-16; for inhibition at 25 µM: HEK293, single concentration 25 μM (designated I)
In short: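 HEK293 cells transiently expressing human GPR84, Gαi2-Rluc8, GFP10-Gγ2 and Gβ1, in Tyrode's buffer pH 7.5. Compounds preincubated 5 min at 37° C, then 200 nmol/L ZQ-16 for 5 min at room temperature; coelenterazine 400A 5 μmol/L. BRET2 acceptor/donor ratio, background- and vehicle-corrected net BRET.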

T1 sequence (Q9NQS5 whole entry): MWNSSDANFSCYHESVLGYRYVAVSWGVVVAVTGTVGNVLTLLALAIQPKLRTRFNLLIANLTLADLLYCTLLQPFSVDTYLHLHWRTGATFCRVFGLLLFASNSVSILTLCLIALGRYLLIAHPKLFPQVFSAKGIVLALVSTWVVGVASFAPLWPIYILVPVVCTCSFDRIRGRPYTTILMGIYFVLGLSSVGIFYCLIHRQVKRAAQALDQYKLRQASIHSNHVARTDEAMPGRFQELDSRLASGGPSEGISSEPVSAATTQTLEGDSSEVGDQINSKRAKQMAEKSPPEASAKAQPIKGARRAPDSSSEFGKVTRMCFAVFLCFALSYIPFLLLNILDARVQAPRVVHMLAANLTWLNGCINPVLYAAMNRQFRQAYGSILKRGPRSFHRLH

## Cc1cc(C#CC2CC2)ccc1-c1nnn(C[C@H]2CCCCO2)c1C [Compound I-45]
  inhibition at 12.5 µM: 25 to 50%

## COC1CN(c2ccc(-c3cn(CC4CCCCO4)nn3)c(C)c2)C1 (stereo not shown) [Compound I-507]
  inhibition at 10 µM: 25 to 50%

## CCc1cc(C#CCN(C)C)ccc1-c1cn(CC2OCC(C)(C)CO2)nn1 [Compound I-852]
  inhibition at 2 µM: > 75%

## COC(c1cn(CC2CCCCO2)nn1)c1cc(C#CC2CC2)ccc1C(F)(F)F (stereo not shown) [Compound I-655]
  inhibition at 10 µM: 50 to 75%

## COC(C)(c1cccc(C#CC2CC2)c1)c1cn(CC2CCCCO2)nn1 (stereo not shown) [Compound I-631]
  inhibition at 10 µM: > 75%

## C(#CC1CC1)c1ccc(-c2cn(CC3OCCCO3)nn2)cc1 [Compound I-102]
  inhibition at 10 µM: 25 to 50%

## CCc1cc(C#CC2CC2)ccc1-c1cn(CC2CCCCO2)nn1 (stereo not shown) [Compound I-865]
  inhibition at 10 µM: ≤ 25%
  IC50: 0.3 to 1 µM

## Cc1cc(C#CC2CC2)ccc1-c1cn(CCOCC2CCCCO2)nn1 (stereo not shown) [Compound I-85]
  inhibition at 25 µM: 25 to 50%

## Cc1cc(C#CC2CC2)ccc1-c1cn(CC2CN(C)CCO2)nn1 (stereo not shown) [Compound I-181]
  inhibition at 10 µM: ≤ 25%

## C(#CC1CC1)c1cccc(-c2nnn(CC3CCCCO3)n2)c1 (stereo not shown) [Compound I-4]
  inhibition at 25 µM: 25 to 50%
  IC50: ≤ 0.3 µM

## Cc1ccc(-c2cccc(-c3nnn(CC4CCCCO4)c3C)c2)cn1 (stereo not shown) [Compound I-95]
  inhibition at 10 µM: ≤ 25%

## Cc1cc(C#CC2CC2)ccc1-c1cn(CC2Cc3ccccc3O2)nn1 (stereo not shown) [Compound I-363]
HEK293, single concentration 3 μM (designated B)
  inhibition at 3 µM: 25 to 50%

## Cc1cc(N2CC3(CCCN3c3ccccn3)C2)ccc1-c1cn(CC2OCC(C)(C)CO2)nn1 [Compound I-689]
  inhibition at 10 µM: > 75%
  IC50: 1 to 3 µM

## Cc1cc(N2CCC(N(C)Cc3ccccc3)CC2)ccc1-c1cn(CC2CCCCO2)nn1 (stereo not shown) [Compound I-141]
  inhibition at 10 µM: ≤ 25%

## COC(c1cn(CC2OCC(C)(C)CO2)nn1)c1cc(C#CC2CC2)ccc1C (stereo not shown) [Compound I-592]
  inhibition at 10 µM: 50 to 75%

## CC1(C)COC(Cn2cc(-c3ncc(C#CC4CC4)cc3OC3CC3)nn2)OC1 [Compound I-702]
  inhibition at 2 µM: > 75%
  IC50: ≤ 0.3 µM

## Cc1ccc(-c2ccc(-c3cn(C[C@H]4COc5ccccc5O4)nn3)cc2)cn1 [Compound I-26]
  inhibition at 25 µM: ≤ 25%

## Cc1cc(C#CCNC(C)C)ccc1-c1cn(CC2CCCCO2)nn1 (stereo not shown) [Compound I-131]
  inhibition at 10 µM: ≤ 25%

## Cc1cc(N2CCN(Cc3ccccn3)CC2)cnc1-c1cn(CC2OCC(C)(C)CO2)nn1 [Compound I-597]
  inhibition at 10 µM: 50 to 75%

## C(#CC1CC1)c1cnc(-c2cn(CC3OCC4(CC4)CO3)nn2)c(OC2CC2)c1 [Compound I-785]
  inhibition at 2 µM: > 75%
  IC50: ≤ 0.3 µM

## CO[C@@H](c1cn(C[C@@H]2CCCCO2)nn1)c1cc(C#CC2CC2)ccc1C [Compound I-513]
  inhibition at 2 µM: 25 to 50%
  IC50: > 2 µM

## CC(C)C#Cc1cnc(-c2cn(CC3OCC4(CC4)CO3)nn2)c(OC2CC2)c1 [Compound I-861]
  inhibition at 10 µM: > 75%

## Cc1ccc(-c2ccc(-c3cn(CC4CCCCO4)nn3)cc2)cn1 (stereo not shown) [Compound I-39]
  inhibition at 25 µM: > 75%
  IC50: > 3 µM

## Cc1ccc(-c2ccc(-c3cn(C[C@H]4COCCO4)nn3)cc2)cn1 [Compound I-25]
  inhibition at 12.5 µM: ≤ 25%

## COC(C)Cn1cc(-c2ccc(C#CCNc3ccccc3)cc2C)nn1 (stereo not shown) [Compound I-162]
  inhibition at 10 µM: 25 to 50%

## Cc1cc(C#CC2CC2)ccc1-c1cn(CC2OCCO2)nn1 [Compound I-457]
  inhibition at 10 µM: ≤ 25%

## CCOC(c1cn(CC2CCCCO2)nn1)c1cc(C#CC2CC2)ccc1C (stereo not shown) [Compound I-594]
  inhibition at 10 µM: > 75%
  IC50: ≤ 0.3 µM

## Cc1cc(N2CC(C)(CO)C2)c(F)cc1-c1cn(C[C@H]2CCCCO2)nn1 [Compound I-804]
HEK293, single concentration 1 μM (designated A°)
  inhibition at 1 µM: 25 to 50%
  IC50: 0.3 to 1 µM

## CCc1cc(C#CC2CC2)cnc1-c1cn(CC2CCOCC2)nn1 [Compound I-274]
  inhibition at 10 µM: 50 to 75%

## Cc1cc(N2CC(C)(C)C2)cnc1-c1cn(CC2CCCCO2)nn1 (stereo not shown) [Compound I-380]
  inhibition at 10 µM: > 75%

## Cc1cc(N2CC(F)(F)C2)ccc1-c1cn(CC2CCCCO2)nn1 (stereo not shown) [Compound I-158]
  inhibition at 10 µM: ≤ 25%

## Cc1ccc(C#CC2CC2)cc1C(OCC(F)(F)F)c1cn(CC2OCC(C)(C)CO2)nn1 (stereo not shown) [Compound I-617, 4-((5-(cyclopropylethynyl)-2-methylphenyl)(2,2,2-trifluoroethoxy)methyl)-1-((5,5-dimethyl-1,3-dioxan-2-yl)methyl)-1H-1,2,3-triazole]
  inhibition at 10 µM: > 75%
  IC50: ≤ 0.3 µM

## C(#CC1CC1)c1csc(-c2cn(CC3CCCCO3)nn2)n1 (stereo not shown) [Compound I-241]
  inhibition at 10 µM: ≤ 25%

## Cc1cc(C#CCNC(=O)C(F)(F)F)cnc1-c1cn(CC2CCCCO2)nn1 (stereo not shown) [Compound I-843, 2,2,2-trifluoro-N-(3-(5-methyl-6-(1-((tetrahydro-2H-pyran-2-yl)methyl)-1H-1,2,3-triazol-4-yl)pyridin-3-yl)prop-2-yn-1-yl)acetamide]
  inhibition at 10 µM: > 75%

## Cc1ccc(C#CC2CC2)cc1-c1cn(CC2OCCCC2(C)C)nn1 (stereo not shown) [Compound I-568]
  inhibition at 10 µM: ≤ 25%

## CC(C)c1cc(C#CCN2CC(C)(C)C2)cnc1-c1cn(CC2OCC(C)(C)CO2)nn1 [Compound I-727]
  inhibition at 2 µM: > 75%
  IC50: 0.3 to 1 µM

## Cc1cc(N2CCC2)ccc1-c1cn(CC2CCCCO2)nn1 (stereo not shown) [Compound I-157]
  inhibition at 10 µM: 50 to 75%

## Cc1cc(C2CCN(Cc3ccccn3)CC2)ccc1-c1cn(CC2CCCCO2)nn1 (stereo not shown) [Compound I-440]
  inhibition at 10 µM: ≤ 25%

## C(#CC1CC1)c1cccc(-c2nnn(CC3COCCO3)n2)c1 (stereo not shown) [Compound I-6]
  inhibition at 25 µM: ≤ 25%

## CC1(C)COC(Cn2cnc(-c3ncc(C#CCN4CC(C)(C)C4)cc3OC3CC3)c2)OC1 [Compound I-845]
  inhibition at 10 µM: > 75%

## Cc1ccc(C#CC2CC2)nc1-c1cn(CC2CCCCO2)nn1 (stereo not shown) [Compound I-479]
  inhibition at 10 µM: ≤ 25%

## Cc1cc(N2CCN(Cc3ccccn3)CC2)ccc1-c1cn(CC2OCC(C)(C)O2)nn1 (stereo not shown) [Compound I-603]
  inhibition at 10 µM: 50 to 75%
  IC50: > 3 µM

## COCC#Cc1cnc(-c2cn(CC3OCC(C)(C)CO3)nn2)c(OC2CC2)c1 [Compound I-757]
  inhibition at 2 µM: > 75%
  IC50: ≤ 0.3 µM

## CNC1CCCN(c2ccc(-c3cn(CC4CCCCO4)nn3)c(C)c2)C1 (stereo not shown) [Compound I-170]
  inhibition at 10 µM: ≤ 25%

## CCc1cc(C#CCNC(=O)OC)ccc1-c1cn(CC2CCCCO2)nn1 (stereo not shown) [Compound I-586]
  inhibition at 10 µM: > 75%
  IC50: 1 to 3 µM

## COc1cc(-c2cn(C[C@H]3CCCCO3)nn2)c(C)cc1N1CC(C)(C)C1 [Compound I-422]
  inhibition at 10 µM: ≤ 25%

## Cc1cc(Cn2cc(-c3ccc(C#CC4CC4)cc3C)nn2)on1 [Compound I-557]
  inhibition at 2 µM: ≤ 25%

## Cc1cc(C#CC2CC2)ccc1-c1cn(CC23CC(C)(CO2)C3)nn1 [Compound I-556]
  inhibition at 2 µM: ≤ 25%

## CC1(C)CN(CC#Cc2cnc(-c3cn(CC4OCC5(CCC5)O4)nn3)c(OC3CC3)c2)C1 (stereo not shown) [Compound I-764]
  IC50: 0.3 to 1 µM

## Cc1cc(C#CC2CC2)ccc1-c1cn(CC2CN(C)C(=O)O2)nn1 (stereo not shown) [Compound I-493]
  inhibition at 10 µM: ≤ 25%

## Cc1cc(C#CC2CC2)ccc1-c1nnc(CC2CCCCO2)o1 (stereo not shown) [Compound I-342, 2-(4-(cyclopropylethynyl)-2-methylphenyl)-5-((tetrahydro-2H-pyran-2-yl)methyl)-1,3,4-oxadiazole]
  inhibition at 10 µM: ≤ 25%

## CN(C)c1cc(N2CC(C)(CO)C2)c(F)cc1-c1cn(CC2OCC3(CCC3)O2)nn1 (stereo not shown) [Compound I-786]
  inhibition at 10 µM: > 75%
  IC50: 0.3 to 1 µM

## Cc1cc(C#CCNc2ccccc2)ccc1-c1cn(CCC2CCCCO2)nn1 (stereo not shown) [Compound I-306]
  inhibition at 10 µM: 25 to 50%

## Cc1cc(N2CCN([C@H](C)c3ccccn3)CC2)ccc1-c1cn(CC2OCC(C)(C)CO2)nn1 [Compound I-715]
  inhibition at 10 µM: > 75%

## CN(C)Cc1cc(C#CC2CC2)ccc1-c1cn(CC2CCCCO2)nn1 (stereo not shown) [Compound I-356]
  inhibition at 10 µM: 25 to 50%

## Cc1cc(OCC(C)(C)N)ccc1-c1cn(CC2CCCCO2)nn1 (stereo not shown) [Compound I-287]
  inhibition at 10 µM: ≤ 25%

## Cc1cccc(C#Cc2cn(CC3OCC(C)(C)CO3)nn2)c1 [Compound I-790, 1-((5,5-dimethyl-1,3-dioxan-2-yl)methyl)-4-(m-tolylethynyl)-1H-1,2,3-triazole]
  inhibition at 10 µM: ≤ 25%

## COC(C)(C)Cn1cc(-c2ccc(C#CCNc3ccccc3)cc2C)nn1 [Compound I-163]
  inhibition at 10 µM: ≤ 25%

## Cc1cc(N2CC3(CCN(C)CC3)C2)ccc1-c1cn(CC2CCCCO2)nn1 (stereo not shown) [Compound I-155]
  inhibition at 10 µM: ≤ 25%

## COCC1(C)CN(c2ccc(-c3cn(CC4CCCCO4)nn3)c(C)c2)C1 (stereo not shown) [Compound I-439]
  inhibition at 10 µM: 25 to 50%

## Cc1cc(C2CCCN(Cc3ccccn3)C2)ccc1-c1cn(CC2CCCCO2)nn1 (stereo not shown) [Compound I-546]
  inhibition at 10 µM: 50 to 75%

## COc1ccc(C)c(N(C)c2cn(CC3OCC(C)(C)CO3)nn2)c1 [Compound I-814]
  inhibition at 10 µM: ≤ 25%

## Cc1cc(C#CC2CC2)ccc1-c1cn(CC2(C)CCCCO2)nn1 (stereo not shown) [Compound I-554]
  inhibition at 2 µM: > 75%

## Cc1cc(N2CC(C)(CN(C)c3ccccn3)C2)ccc1-c1cn(CC2CCCCO2)nn1 (stereo not shown) [Compound I-675]
  inhibition at 10 µM: > 75%

## C(#CC1CC1)c1ccc(-c2nnnn2CC2CCCCO2)cc1 (stereo not shown) [Compound I-346]
  inhibition at 25 µM: 25 to 50%
  IC50: > 3 µM

## Cc1cc(C#CC2CC2)ccc1-c1cn(CC2CCCCS2)nn1 (stereo not shown) [Compound I-258]
  inhibition at 10 µM: 50 to 75%

## Cc1cc(N2CCCC23CN(C)C3)ccc1-c1cn(CC2CCCCO2)nn1 (stereo not shown) [Compound I-151]
  inhibition at 10 µM: ≤ 25%

## CC1(C)CN(c2ccc(-c3cn(CC4CCCCO4)nn3)c(OCCO)c2)C1 (stereo not shown) [Compound I-280]
  inhibition at 10 µM: > 75%

## O=c1oc(CC2CCCCO2)nn1Cc1ccc(C#CC2CC2)cc1 (stereo not shown) [Compound I-19]
  inhibition at 10 µM: > 75%
